Experimental data as given in ChEMBL document CHEMBL4130410, “Novel rhynchophylline analogues as microvascular relaxation agents for the treatment of microvascular dysfunction caused by diabetes” (Eur J Med Chem, 2017).
The source made the active and inactive calls. The rule behind the calls is not given here.

What was measured:
Mesenteric artery [1] = test: Vasorelaxant activity in endothelium intact mesentric artery rings isolated from streptozotocin-induced type-1 diabetic Sprague-Dawley rat model assessed as inhibition of phenylephrine-induced contraction; assay type: functional, tissue-based
Mesenteric artery [2] = test: Vasorelaxant activity in endothelium intact mesentric artery rings isolated from streptozotocin-induced type-1 diabetic Sprague-Dawley rat model assessed as inhibition of phenylephrine-induced contraction in presence of eNOS inhibitor L-NAME; assay type: functional, tissue-based
Mesenteric artery [3] = test: Vasorelaxant activity in Sprague-Dawley rat endothelium denuded mesentric artery rings assessed as inhibition of KCl-induced contraction; assay type: functional, tissue-based
Mesenteric artery [4] = test: Vasorelaxant activity in Sprague-Dawley rat endothelium intact mesentric artery rings assessed as inhibition of KCl-induced contraction; assay type: functional, tissue-based
Mesenteric artery [5] = test: Vasorelaxant activity in Sprague-Dawley rat endothelium intact mesentric artery rings assessed as inhibition of phenylephrine-induced contraction; assay type: functional, tissue-based
Thoracic aorta [6] = test: Vasorelaxant activity in rat thoracic aorta; assay type: functional, tissue-based
Thoracic aorta [7] = test: Potency index, ratio of rhynchophylline IC50 to compound IC50 for vasorelaxant activity in rat thoracic aorta; assay type: functional
Mesenteric artery [8] = test: Vasorelaxant activity in Sprague-Dawley rat endothelium denuded mesentric artery rings assessed as inhibition of phenylephrine-induced contraction; assay type: functional, tissue-based
Mesenteric artery [9] = test: Vasorelaxant activity in Sprague-Dawley rat endothelium intact mesentric artery rings assessed as inhibition of phenylephrine-induced contraction in presence of non-selective calcium-activated K+ channel blocker TEA/VGCC blocker nifedipine; assay type: functional, tissue-based
Mesenteric artery [10] = test: Vasorelaxant activity in mesentric artery rings isolated from Sprague-Dawley rat assessed as inhibition of phenylephrine-induced contraction in presence of eNOS inhibitor L-NAME; assay type: functional, tissue-based
Rattus norvegicus [11] = test: (§1) In vivo vasorelaxant activity in streptozotocin-induced type-1 diabetic Sprague-Dawley rat model assessed as protection against eNOS loss in vessels at 20 mg/kg, po via gavage for 1 week starting from 8 week post diabetic induction by hematoxylin and eosin staining based assay; assay type: functional, organism-based
Rattus norvegicus [12] = test: In vivo vasorelaxant activity in streptozotocin-induced type-1 diabetic Sprague-Dawley rat model assessed as increase in acetylcholine-induced endothelium dependent relaxation in mesentric artery rings at 20 mg/kg, po via gavage for 1 week starting from 8 week post diabetic induction; assay type: functional, organism-based
Rattus norvegicus [13] = test: as §1, with “vessels by measuring increase in eNOS protein expression” for “vessels”, “Western blot method” for “hematoxylin and eosin staining based assay”; assay type: functional, organism-based
Rattus norvegicus [14] = test: In vivo vasorelaxant activity in streptozotocin-induced type-1 diabetic Sprague-Dawley rat model assessed as inhibition of phenylephrine-induced contraction in mesentric artery rings at 20 mg/kg, po via gavage for 1 week starting from 8 week post diabetic induction; assay type: functional, organism-based

Row | IC50 (Mesenteric artery [5]) [µM] | IC50 (Thoracic aorta [6]) [µM] | IC50 (Mesenteric artery [8]) [µM] | Structure (SMILES) | inhibition (Mesenteric artery [1]) | inhibition (Mesenteric artery [2]) | inhibition (Mesenteric artery [3]) | inhibition (Mesenteric artery [4]) | Emax (Mesenteric artery [5]) [%] | inhibition (Mesenteric artery [5]) | Ratio IC50 (Thoracic aorta [7]) | Emax (Mesenteric artery [8]) [%] | inhibition (Mesenteric artery [9]) | inhibition (Mesenteric artery [10]) | Activity (Rattus norvegicus [11]) | Activity (Rattus norvegicus [12]) | Activity (Rattus norvegicus [13]) | inhibition (Rattus norvegicus [14])
1 | 0.092 | 0.199 | 5.15 | COC(=O)C[C@H]1C[C@@H]2c3[nH]c4ccccc4c3CCN2C[C@H]1CCO | Active | inactive | inactive | inactive | 100 | Dose-dependent effect | <=30 | 101 | inactive | inactive |  |  |  | 
2 | 0.499 | 5.89 | 1.2 | COC(=O)CC1CC2c3[nH]c4ccccc4c3CCN2CC1CCO (racemic) | Active | inactive | inactive | inactive | 99.9 | Dose-dependent effect | <=30 | 99.7 | Active | inactive | Active | Active | Active | Active
3 | 7.79 | 3.69 | 49.9 | COC(=O)C[C@@H]1C[C@H]2c3[nH]c4ccccc4c3CCN2C[C@@H]1CCO |  | inactive | inactive | inactive | 99.1 | Dose-dependent effect | <=30 | 86.3 | Active | inactive |  |  |  | 

Row | Structure (SMILES) | IC50 (Mesenteric artery [5]) [µM] | IC50 (Thoracic aorta [6]) [µM] | IC50 (Mesenteric artery [8]) [µM] | inhibition (Mesenteric artery [1]) | inhibition (Mesenteric artery [2]) | inhibition (Mesenteric artery [3]) | inhibition (Mesenteric artery [4]) | Emax (Mesenteric artery [5]) [%] | inhibition (Mesenteric artery [5]) | Ratio IC50 (Thoracic aorta [7]) | Emax (Mesenteric artery [8]) [%] | inhibition (Mesenteric artery [9]) | inhibition (Mesenteric artery [10]) | Activity (Rattus norvegicus [11]) | Activity (Rattus norvegicus [12]) | Activity (Rattus norvegicus [13]) | inhibition (Rattus norvegicus [14])
4 | CC[C@H]1CN2CC[C@]3(C(=O)Nc4ccccc43)[C@@H]2C[C@@H]1/C(=C/OC)C(=O)OC |  | 174 |  |  |  |  |  |  |  |  |  |  |  |  |  |  | 
